“Also recorded” adds a separate entry of the source.
Tests used:
[1] = tested on: TSH; experiment: TSH in ZDF rats; type: in vivo, Zucker diabetic fatty (ZDF) rats; conditions: 4 weeks of treatment
Procedure: (§1) Methods: ZDF rats were maintained on a standard diet (5008). Compounds cis-13-1 or 18 were administered orally at the indicated doses using a CMC suspension. Liver steatosis was analyzed visually following H&E staining of paraffin embedded liver sections. TSH was measured using a rodent specific kit (Amersham Biosciences). At the end of the experiment, the left ventricle was cannulated with a high fidelity catheter-tip transducer (Millar) via the right carotid artery. Left ventricle pressure, its first derivative (LV dP/dt), lead I ECG, and heart rate triggered off the ECG waveform, were recorded.

[2] = tested on: CPT-1; experiment: Liver gene expression (real-time PCR) in normal mice; type: in vivo; conditions: normal C57Bl6 mice; 30 mg/kg/d orally, CMC suspension, 1 week; liver mRNA
Procedure: The purpose of these studies was to compare the ability of Compound cis-13-1 to change liver gene expression.
Methods: C57Bl6 mice were maintained on a normal rodent diet. Compound cis-13-1 was administered at doses of 30 mg/kg/d orally in a CMC suspension for 1 week. Changes in levels of mRNA for liver and heart genes are analyzed using reverse transcriptase followed by real-time PCR analysis. The analysis is performed using an iCycler instrument (Biorad) and appropriate primers by means of standard methodology (e.g., Schwab D A et al. Life Sciences 66:1683-94(2000)). The amounts of mRNA are normalized to an internal control, typically, cyclophilin.

[3] = tested on: hepatic steatosis; experiment: Liver steatosis (H&E sections) in DIO mice; type: in vivo, diet induced obesity (DIO) mice; conditions: DIO mice (60% Kcal from fat diet); 30 mg/kg/d orally, CMC suspension, 10 weeks
Procedure: (§2) The purpose of these studies was to compare the ability of Compound cis-13-1 to clear liver steatosis in diet induced obesity (DIO) mice. Methods: […] mice were maintained on a 60% Kcal from fat diet. Compound cis-13-1 was administered at doses of 30 mg/kg/d orally in a CMC suspension for 10 weeks. Liver steatosis was analyzed visually following H&E staining of paraffin embedded liver sections. TSH was measured using a rodent specific kit (Amersham Biosciences). Heart rates were measured using a Lead I ECG with the heart rate calculated from the ECG waveform.

[4] = tested on: ALT; experiment: ALT levels (clinical chemistry) in ob/ob mice; type: in vivo; conditions: 9 weeks of treatment, from 634 IU/L in the vehicle treated group
Procedure: (§3) Methods: ob/ob mice were maintained on a standard diet. Compound cis-13-1 was administered at doses of 3, 10 and 30 mg/kg/d orally in a CMC suspension. T3, 100 nmole/kg/d, was administered as an aqueous solution subcutaneously. Liver triglycerides were analyzed as described in example A. Epididymal fat pads were removed and weighed. Clinical chemistry analysis was performed by LabCorp (San Diego, Calif.).

[5] = Heart rate and cardiovascular parameters in ZDF rats; type: in vivo, Zucker diabetic fatty (ZDF) rats; conditions: end of experiment
Procedure: as §1

[6] = tested on: hepatic steatosis; experiment: Liver steatosis (H&E sections) in ZDF rats; type: in vivo, Zucker diabetic fatty (ZDF) rats; conditions: oral, CMC suspension
Procedure: as §1

[7] = tested on: TSH; experiment: TSH in DIO mice; type: in vivo, diet induced obesity (DIO) mice; conditions: 10 weeks of treatment
Procedure: as §2, with “Methods:” for “The purpose of these studies was to compare the ability of Compound cis-13-1 to clear liver steatosis in diet induced obesity (DIO) mice. Methods:”

[8] = tested on: liver triglycerides; experiment: Liver triglycerides, chronic exposure in ob/ob mice; type: in vivo; conditions: for Liver Trigs: CMC suspension
Procedure: Sections of liver were removed and frozen. Liver triglycerides were analyzed following lipid extraction by the Bligh Dyer method (Bligh and Dyer, Can. J. Med. Sci. 37(8):911-7 (1959), incorporated herein by reference). Total triglycerides were analyzed in the liver extracts by an enzymatic assay (Thermo Electron Corporation). Total lipid was normalized to initial liver weight and triglyceride content was normalized to liver weight mGPDH activity was analyzed in isolated mitochondria using 2-(4-iodophenyl)-3-(4-nitrophenyl)-5-phenyl tetrazolium chloride as the terminal electron acceptor (Gardner R S, Analytical Biochemistry 59:272 (1974)). Commercially available GPDH was used in each assay as a standard (Sigma, St. Louis, Mo.).
The purpose of these studies was to compare the difference in efficacy to clear liver triglyceride content between Compound cis-13-1 and T3 in ob/ob mice.
as §3

[9] = Heart rate (Lead I ECG) in DIO mice; type: in vivo, diet induced obesity (DIO) mice; conditions: 30 mg/kg/d orally, 10 weeks
Procedure: as §2, with “Methods:” for “The purpose of these studies was to compare the ability of Compound cis-13-1 to clear liver steatosis in diet induced obesity (DIO) mice. Methods:”

[10] = tested on: hepatic steatosis; experiment: Hepatic steatosis measured chemically and histologically in ob/ob mice; type: in vivo; conditions: oral administration of cis-13-1
Procedure: as §3

[11] = Epididymal fat pad weight in ob/ob mice; type: in vivo; conditions: for EFP weight: CMC suspension
Procedure: as §3

[12] = tested on: mitochondria; experiment: Ultrastructure of mitochondria in DIO mice; type: in vivo, diet induced obesity (DIO) mice; conditions: 30 mg/kg/d orally, 10 weeks
Procedure: as §2, with “Methods:” for “The purpose of these studies was to compare the ability of Compound cis-13-1 to clear liver steatosis in diet induced obesity (DIO) mice. Methods:”

Cc1cc(OC[P@@]2(=O)OCC[C@@H](c3cccc(Cl)c3)O2)cc(C)c1Cc1ccc(O)c(C(C)C)c1 [Compound cis-13-1]
Effect on TSH, in words [1]: No significant decreases in TSH | Increase in CPT-1 expression [2]: 3.5 fold | Effect on hepatic steatosis (visual, H&E), in words [3]: decreased hepatic steatosis | Decrease in ALT levels [4]: > 50% | Heart rates and other cardiovascular parameters, change from vehicle, in words [5]: no significant changes from vehicle in any parameter | Effect on hepatic steatosis (visual, H&E), in words [6]: visually decreased hepatic steatosis compared to control | Effect on TSH, in words [7]: No significant decreases in TSH | Liver Trigs ([8]; 3 mg/kg/d orally): 87 ± 6 mg/g | Liver Trigs ([8]; 10 mg/kg/d orally): 66 ± 10 mg/g | Liver Trigs ([8]; 30 mg/kg/d orally): 59 ± 6 mg/g | Effect on liver (hepatic) triglyceride content, in words ([8]; cis-13-1 oral 3, 10, 30 mg/kg/d, T3 100 nmole/kg/d s.c.): decreased hepatic triglyceride content at 10 and 30 mg/kg/d | Change in heart rate, in words [9]: no significant change in heart rate | Effect on hepatic steatosis measured chemically and histologically, in words [10]: decreased hepatic steatosis | EFP weight ([11]; 3 mg/kg/d orally): 4.4 ± 0.1 g | EFP weight ([11]; 10 mg/kg/d orally): 4.7 ± 0.1 g | EFP weight ([11]; 30 mg/kg/d orally): 4.4 ± 0.1 g | Effect on epididymal fat pad (EFP) weight, in words ([11]; cis-13-1 oral, T3 100 nmole/kg/d s.c.): did not decrease epididymal fat pad (EFP) weight; also recorded: no effect on epididymal fat pad weight | Ultrastructure of mitochondria, in words [12]: no abnormalities in the ultrastructure of mitochondria

From patent US10925885B2, “Thyromimetics for the treatment of fatty liver diseases” (Metabasis Therapeutics, Inc., priority 2005, dated 2021)
